Like-named read-outs stand apart in the source and are kept apart here.

In assay [1] the test system is housefly larval central nervous system. Nature of the assay: Neurophysiological recordings of CNS nerve discharge in housefly larvae. Further details: species or system Musca domestica. The note with it: for EC50: Musca domestica. On the procedure: Neurophysiological recordings were performed on the central and peripheral nervous systems of larval Musca domestica. Glass pipette electrodes were pulled from borosilicate glass capillaries on a P-1000 Flaming/Brown micropipette puller (Sutter Instrument, Novato CA, USA). For CNS recordings, it was first excised from the larvae and placed in a separate dish with physiological saline (200 µL) containing: 157 mM NaCl, 3 mM KCl, 2 mM CaCl2, and 4 mM HEPES, pH = 7.25. The CNS was manually transected posterior to the cerebral lobes to disrupt the blood-brain barrier and enhance chemical penetration. Any convenient peripheral nerve trunks were pulled into a recording suction electrode. Amplification and digitization of descending electrical activity originating from the CNS were converted on-line into a rate plot, expressed in Hz (MacLab analog to digital converter hardware and LabChart 7 software, ADInstruments, Colorado Springs, CO, USA). […] After a baseline was established, the CNS preparation was directly exposed to test compound by adding 200 µL of solution to the bath containing 200 µL of saline. The final concentration of solvent in the bath was 0.1% DMSO. Each concentration was recorded for 3–5 min prior to the addition of the next drug concentration. […] Each drug concentration was replicated 3-5 times.

Assay [2] deals with firefly light organ. Nature of the assay: In vivo assay for effects on firefly light organ. On the set-up: species or system Photinus pyralis. As for the experimental part:
Adult firefly beetles (Photinus sp.) were collected locally (Nashville, TN) and housed in well-ventilated chambers with tree leaves. The animals had free access to 10% sucrose solution. Chemicals were dissolved in absolute ethanol and 1 µL was topically applied directly to the ventral light organ with the use of a manual pipettor. Prior to DEET application, the beetles were immobilized with molten parafilm and were mounted on corrugated cardboard for the duration of the study. Due to the time required for bioactivation of CDM, insects were treated with 1 µL of CDM and were released back into the holding chamber for three hours. After three hours, they were mounted in the previously described manner and monitored for activation of the lantern. Photographs were captured with a handheld camera (Canon PowerShot SX110 IS). Pictures were captured within five minutes, four hours, and 10 minutes post application for DEET, CDM, and propoxur, respectively. DEET- and propoxur-treated insects were monitored for at least 1 hour post exposure to ensure the response was not slow acting. The original photographs were cropped and background shadows were enhanced to increase detail of the insect using Adobe Photoshop PS5 (Adobe Systems, San Jose, CA, USA). The color or brightness of the light organ was not manipulated in any way during post-processing of the image.

Assay [3] addresses T1, Aedes aegypti AChE (AeAChE) (Aedes aegypti, UniProt Q6A2E2).
T1 construct: Homogenate enzymes were prepared from groups of ten non-blood fed adult female mosquitoes; from tissue; host or cells: whole adult female mosquitoes, supernatant of homogenate
The experiment in a line: AChE inhibition, Ellman assay. It is filed as biochemical. An excerpt: (§1) In vitro biochemical assays utilized five acetylcholinesterase (AChE) enzymes. Recombinant human AChE (hAChE) was purchased from a commercial source (lyophilized powder, Sigma C1682, St. Louis, MO, USA). Homogenates to prepare Anopheles gambiae AChE (AgAChE) were obtained from the wild type G3 strain and the resistant AKRON strain (BEI Resources; http://www.beiresources.org/). AKRON mosquitoes (from Benin and donated by M. Akogbeto) have both knockdown resistance (kdr) to pyrethroids (L1014F sodium channel mutation) and the G119S AChE mutation (ace-1R), which confers resistance to carbamates, [15]. Both strains were cultured in the Emerging Pathogens Institute, University of Florida, Gainesville, FL, USA from eggs provided by the Center for Disease Control, Atlanta, GA, USA. Homogenates were also used to prepare Aedes aegypti AChE (AeAChE) from mosquitoes provided by the CMAVE, USDA-ARS, Gainesville, FL, USA; Musca domestica AChE (MdAChE) from flies cultured in the Department of Entomology and Nematology, Medical Entomology Laboratory, University of Florida, Gainesville, FL, USA); and Drosophila melanogaster AChE (DmAChE) from flies (Oregon-R strain) cultured in the Emerging Pathogens Institute, University of Florida, Gainesville, FL, USA. Homogenate enzymes were prepared from groups of ten non-blood fed adult female mosquitoes, five whole bodied Drosophila, or three Musca heads homogenized in 1 mL of ice-cold sodium phosphate buffer (0.1 M sodium phosphate, pH 7.8) with an electric motor driven glass tissue homogenizer. The homogenate was centrifuged at 5000×g using a Sorvall Fresco refrigerated centrifuge at 4 °C for 5 minutes. The supernatant was used as the enzyme source, and all enzyme preparations contained 0.3% (v/v) triton X-100 and 1 mg/ml BSA. Prior to use, the recombinant human enzyme was diluted 500-fold into sodium phosphate buffer containing triton X-100 and 1 mg/ml BSA.
(§2) Inhibition of AChE was determined using the Ellman assay and was based on the method outlined in Carlier et al.. Briefly, enzyme solution (10 µL) was added to each well of a 96-well micro assay plate, along with 20 µL of inhibitor in DMSO/saline suspension, and 150 µL of sodium phosphate buffer. Final concentration of DMSO was 0.1% in all incubations. The plate was incubated at 25 °C for ten minutes. Ellman assay reagents, acetylthiocholine iodide (0.4 mM, final concentration) and 5,5′-dithiobis-(2-nitro)benzoic acid (0.3 mM, final concentration), were prepared fresh and 20 µL was added to the enzyme to initiate the reaction.

In assay [4] the target is T2, Anopheles gambiae AChE (AgAChE), wild type G3 strain (Anopheles gambiae, UniProt Q869C3).
T2 construct: Homogenate enzymes were prepared from groups of ten non-blood fed adult female mosquitoes; from tissue; host or cells: whole adult female mosquitoes, G3 strain, supernatant of homogenate
The experiment in a line: AChE inhibition, Ellman assay. It is filed as biochemical.
Text: as §1, §2

Assay [5] addresses T3, Drosophila melanogaster AChE (DmAChE) (Drosophila melanogaster, UniProt P07140).
T3 construct: five whole bodied Drosophila, or three Musca heads homogenized; from tissue; host or cells: whole Drosophila (Oregon-R), supernatant of homogenate
The experiment in a line: AChE inhibition, Ellman assay. The assay is classed as biochemical. As to conditions: mean, n = 3; read-out: IC50 (95% CI).
Text: as §1, §2

Assay [6] deals with T4, AKRON AgAChE (G119S AChE mutation) (Anopheles gambiae, UniProt Q869C3, G280S).
T4 construct: Homogenate enzymes were prepared from groups of ten non-blood fed adult female mosquitoes; from tissue; host or cells: whole adult female mosquitoes, AKRON strain, supernatant of homogenate
The experiment in a line: AChE inhibition, Ellman assay. The assay is classed as biochemical.
Text: as §1
as §2, with “reaction. Changes in absorbance were recorded by a DYNEX Triad spectrophotometer (DYNEX Technologies, Chantilly, VA, USA) at 405 nm. Enzyme concentrations used were within the linear range, therefore eliminating the need for protein quantification.” for “reaction.”

Assay [7] has as its target Musca domestica AChE (MdAChE) (Musca domestica, UniProt Q7YWJ9). Nature of the assay: AChE inhibition, Ellman assay. The note with it: mean, n = 3; read-out: IC50 (95% CI). The assay is classed as biochemical.
Text: as §1
as §2, with “reaction. Changes in absorbance were recorded by a DYNEX Triad spectrophotometer (DYNEX Technologies, Chantilly, VA, USA) at 405 nm. Enzyme concentrations used were within the linear range, therefore eliminating the need for protein quantification.” for “reaction.”

Assay [8] has as its system neuromuscular junction of third instar Musca domestica larvae. Nature of the assay: Neuromuscular junction recordings of evoked EPSP in housefly larvae. The note with it: toluene at 5 mM. As for the experimental part: Neuromuscular recordings of the evoked excitatory postsynaptic potential (EPSP) were performed on third instar housefly larvae, essentially as described previously. In short, the maggot was immobilized with pins, and the nervous and musculature systems were exposed. The preparation was then bathed in saline containing: 140 mM NaCl, 0.75 mM CaCl2, 5 mM KCl, 4 mM MgCl2, 5 mM NaHCO3, and 5 mM HEPES (pH = 7.25). The nerves were severed from the base of the CNS, which was removed, and a lateral nerve trunk innervating the longitudinal muscles was drawn into a suction electrode filled with saline. Stimuli were applied at 1 volt and of 0.2 sec duration to elicit a contraction from the longitudinal muscles. The stimulated muscle was then impaled with a recording glass capillary microelectrode filled with 1 M KCl to record effects on the evoked EPSP and membrane potential. Signals from all recordings were amplified and digitized with the use of the MacLab. Chemicals were applied to the preparation directly by hand pipetting 150 µL of solution into the bath volume of 150 µL.

The subject of assay [9] is octopamine receptors of Sf21 cells. The experiment in a line: Calcium fluorescence assay in Sf21 cells. It is filed as cell-based. On the procedure: The Sf21 insect cell line was obtained from a commercial supplier (Invitrogen, Carlsbad, CA, USA) and maintained in log phase culture in Trichoplusia ni Medium-Formulation Hink (TNM-FH) from Sigma-Aldrich (St. Louis, MO, USA), supplemented with 10% fetal bovine serum and 100 U/ml penicillin and streptomycin (Sigma-Aldrich). Cells were cultured in a non-humidified environment and maintained at 27°C. Sf21 cells were passaged every 3–5 days according to manufacturer's instructions, and maintained for about 30 passes before being replaced by fresh cells.
Sf21 cells were plated into 96-well black-wall, clear bottom plates 24 h before calcium fluorescence assay. […] The octopamine receptor antagonist phentolamine (100 µM) was co-incubated with cells for 1 h before drug challenge. Phentolamine, octopamine, and DEET were dissolved in water, while propoxur was dissolved in 100% DMSO to make a stock solution, and in the assay, DMSO was kept to 0.1%. The experiment was repeated in triplicate with different plates of cells to obtain means and SEMs for each experimental condition.

The target of assay [10] is T5, Recombinant human AChE (hAChE) (Homo sapiens, UniProt P22303).
T5 construct: purchased Sigma C1682
The experiment in a line: AChE inhibition, Ellman assay. The assay is classed as biochemical. The note with it: mean, n = 3; read-out: IC50 (95% CI).
Text: as §1
as §2, with “reaction. Changes in absorbance were recorded by a DYNEX Triad spectrophotometer (DYNEX Technologies, Chantilly, VA, USA) at 405 nm. Enzyme concentrations used were within the linear range, therefore eliminating the need for protein quantification.” for “reaction.”

Assay [11] deals with acetylcholinesterase. Nature of the assay: AChE inhibition, Ellman assay, summary statements across enzymes. The assay is classed as biochemical. The note with it: concentrations up to 10 mM, all enzyme preparations.
Text: as §1, with “The supernatant was used as the enzyme source, and all enzyme preparations contained 0.3% (v/v) triton X-100 and 1 mg/ml BSA. Prior to use, the recombinant human enzyme was diluted 500-fold into sodium phosphate buffer containing triton X-100 and 1 mg/ml BSA.” left out
Inhibition of AChE was determined using the Ellman assay and was based on the method outlined in Carlier et al.. […] Changes in absorbance were recorded by a DYNEX Triad spectrophotometer (DYNEX Technologies, Chantilly, VA, USA) at 405 nm. Enzyme concentrations used were within the linear range, therefore eliminating the need for protein quantification.

Assay [12] has as its system housefly larval central nervous system. The experiment in a line: Neurophysiological recordings of CNS nerve discharge in housefly larvae. As to conditions: Musca domestica; transected CNS; value (95% CI); read-out: EC50, excitation of nerve firing.
Assay [13] concerns rat Nav 1.4 channel. Further details: method as in ref 12 = [12]; 12 Scior T , Martinez-Morales E , Cruz S , Salinas-Stefanon E ( 2009 ) In silico modeling of toluene binding site in the pore of voltage-gate sodium channel . J Receptor Ligand Channel Res 2 : 1 – 9 . The note with it: in vitro ref 12; cited from earlier work.
[14] abbreviates: mean, n = 3, read-out: IC50 (95% CI).

For `Nc1ccncc1` [4-AP, 4-aminopyridine], the “increase of maximal firing frequency above control levels” value in assay [1] was 6 fold. Besides, in assay [1] (Fig. 3D, firing declined at concentrations >1 mM, read-out: EC50, neuroexcitation), the EC50 is 0.013 mM.
`Cc1cc(Cl)ccc1N=CN(C)C` [CDM, chlordimeform]: the lantern illumination entry is “incomplete activation of the light organ” in assay [2] (1 µg topically on light organ) and “bright, constant glow of the entire lantern” in [2] (5 µg topically on light organ). Moreover, the “duration of glow of the entire lantern” value in assay [2] (5 µg) was “approximately four”.
On to `CCN(CC)CC(=O)Nc1c(C)cccc1C` [Lidocaine, lidocaine], for which the IC50 was more than 10 mM in assay [3] (setting [14]); more than 10 mM in assay [4] (setting [14]); 9.6 mM in assay [5]; more than 10 mM in assay [6]; 4.9 mM in assay [7]. In [8], the “effect on evoked EPSP in words” value is on record as “antagonist”.
On to `NCC(O)c1ccc(O)cc1` (centres unmarked) [Octopamine, octopamine], for which the EC50 in assay [1] (Fig. 3B, read-out: excitatory EC50) was 0.11 mM. Also, the “increase in calcium fluorescence” value in assay [9] (100 µM, over control cells) was “ca. 50%”.
As for `Cc1ccccc1` [Toluene, toluene], the IC50 in [3], in assay [4], in assay [5], in assay [6], in assay [7] and in [10] was more than 10 mM in each case. For the same molecule, the “AChE inhibition in words” value in [11] was “inactive”. In assay [8], the “effect on evoked EPSP in words” value is given as “excitatory”. Moreover, the EC50 in [12] stood at 1 mM. Further, the concentration blocking channels in [13] is on record as 3 mM.
With `Cc1ccc(N(CC2=NCCN2)c2cccc(O)c2)cc1` [phentolamine], in assay [1] (100 µM phentolamine, DEET up to 500 µM), the “block of DEET-mediated neuroexcitation” value is “completely blocked”. The “block of octopamine-mediated neuroexcitation” value in assay [1] (100 µM phentolamine, octopamine up to 3 mM) is recorded as “completely blocked”. In assay [1] (100 µM phentolamine, propoxur 1 µM, not statistically significant), the “decline of maximal firing compared to propoxur alone” value was 21%. The “effect on neuroexcitation by propoxur” value in [1] (100 µM phentolamine, propoxur below 1 µM) was “no effect”. In assay [1] (phentolamine), the “effect on 4-AP mediated neuroexcitation” value is “no effect”. Further, the “effect on DEET- and octopamine-mediated activation of calcium fluorescence” value in [9] (100 µM phentolamine pre-exposure 1 h) was “abolished”.

The record behind these values is PMC4125160, “Neurotoxicity and Mode of Action of N, N-Diethyl-Meta-Toluamide (DEET)” (PLoS ONE, 2014).
